Here are results for 4 molecules from patent US20230321083A1, “Inhibitors of GPR174 and Uses Thereof” (Omeros Corporation, priority 2016, published 2023).

Common to all, as to assay type: cell-based
Assay [1] addresses T1, GPR174 (Homo sapiens, UniProt Q9BXC1). The assay can be described thus: Cellular Redistribution Assay (CRA) against GPR174. The arrangement: fused on or other part: No tag or reporter is given. The conditions noted are these: FIG. 5A. The source says:
One method for identifying compounds capable of modulating a receptor is using a cellular redistribution assay (“CRA”). Exemplary CRA methods are found in U.S. Pat. No. 7,309,576 issued to O'Dowd et al. and in O'Dowd et al., J. Biomol. Screen. 12:175-85, 2007. […] Incorporation of the NLS alters the cellular localization of the GPCR, such that the majority of the NLS-modified receptor is present in the cell interior. An NLS-modified GPCR, when interacting with a functionally active compound, is mostly localized on the cell surface. Thus, it becomes possible to identify receptor modulators without knowledge of the endogenous ligand or a surrogate ligand.
The inventors have identified a number of compounds that inhibit GPR174 using a CRA assay similar to that described in U.S. Pat. No. 7,309,576 and in O'Dowd et al., J. Biomol. Screen. 12:175-85, 2007. These compounds are described in detail below.
(§1) The inventors used a CRA similar to that described in U.S. Pat. No. 7,309,576 and O'Dowd et al., J. Biomol. Screen. 12:175-85, 2007 to identify compounds that are capable of interacting with GPR174 using a library of approximately 370,000 chemical entities. Briefly described, the CRA assay described in U.S. Pat. No. 7,309,576 involves artificially inserting a NLS into the dopamine D1 receptor (DRD1), which allows the receptor to traffic from the cell membrane to the cell interior, and that the binding of antagonists to the receptor retained the receptor at the cell surface, while removal of the ligand allowed the receptor to continue to internalize from the cell surface. Both antagonists and agonists that selectively bound the receptor retained the receptor on the plasma membrane. GPR174 constructs were generated for use in a CRA-based compound screening assay. From this screen, the inventors initially identified compounds of formula I-VI, as described herein and included in TABLE 1.
Target sequence in this assay (Q9BXC1 1-290 limits assumed): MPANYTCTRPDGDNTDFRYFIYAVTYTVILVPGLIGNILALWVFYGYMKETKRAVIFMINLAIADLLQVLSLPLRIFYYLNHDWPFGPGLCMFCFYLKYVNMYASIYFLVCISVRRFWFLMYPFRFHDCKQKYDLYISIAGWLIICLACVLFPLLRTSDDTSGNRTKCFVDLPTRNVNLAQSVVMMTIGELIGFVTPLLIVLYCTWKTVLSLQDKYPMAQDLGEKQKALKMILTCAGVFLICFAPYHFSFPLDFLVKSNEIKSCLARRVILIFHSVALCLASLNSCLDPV

Assay [2] has as its target T2, ADBR2 (Homo sapiens, UniProt P07550).
T2 construct: host or cells: HEK293 or CHO cell lines (ATCC)
The assay can be described thus: CRE-Luc reporter Gs signaling assay, control receptor ADBR2. Here is the method: (§2) Compounds were tested in the reporter system with increasing concentrations of GPR174-interacting compounds. GPR174 construct pCMV6-XL4-GPR174 or ADBR2, reporter of interest, pCRE-Luc or GL4.29 (3000 ng), and TK-renilla as an internal control (10 ng) with lipofectamine 2000 (60 ug) (Invitrogen, CA) according to the manufacturer's directions.
(§3) The DNA/lipofectamine 2000 mix (3000 μL) was incubated at room temperature for 30 minutes and then added into a 10 cm culture dish (Corning, NY) containing 70-90% confluent cultured cells, typically HEK293 or CHO cell lines (ATCC, VA), in 15 mL of media. The cells were further incubated for 4-6 hours at 37° C. and then media were removed and cells were detached with 2 mL trypsin (Life Technologies, CA). Media (26 mL) were added to the detached cells and 120 μL of transfected cells were transferred to each well on a 96-well plate. Increasing concentration of each compound in DMSO (1.2 μl) was added to the cells after plating into the 96-well plate. The cells were further incubated at 37° C. for various times. The media were removed and the cells lysed. Luciferase and renilla activities were measured with the Dual-luciferase assay system (Promega, WI) according to the manufacturer's directions. Typically, lysis buffer (25 μL) was added to the cells and incubated at room temperature for 20-30 minutes to allow for the cells to lyse. The lysate (10 μL) was measured for luciferase and renilla activity with LARII and Stop&Glo reagent (50 μL each) with a SpectraMax L (Molecular Devices, CA). Data were analyzed with either Excel (Microsoft, WA) or Prism 4.03 (GraphPad, CA).
(§4) ADBR2 is a GPCR, like GPR174, that activates the Gs signaling pathway.

The target of assay [3] is T1, GPR174. The assay can be described thus: CRE-Luc reporter Gs signaling assay, cells transfected with GPR174. The conditions noted are these: for effect on Gs pathway in the presence of GPR174: CRE-Luc reporter. The arrangement: host or cells: HEK293 or CHO cell lines (ATCC). Here is the method: as §2, §3, §4
Target sequence in this assay (Q9BXC1 whole entry, the tested form may be a part): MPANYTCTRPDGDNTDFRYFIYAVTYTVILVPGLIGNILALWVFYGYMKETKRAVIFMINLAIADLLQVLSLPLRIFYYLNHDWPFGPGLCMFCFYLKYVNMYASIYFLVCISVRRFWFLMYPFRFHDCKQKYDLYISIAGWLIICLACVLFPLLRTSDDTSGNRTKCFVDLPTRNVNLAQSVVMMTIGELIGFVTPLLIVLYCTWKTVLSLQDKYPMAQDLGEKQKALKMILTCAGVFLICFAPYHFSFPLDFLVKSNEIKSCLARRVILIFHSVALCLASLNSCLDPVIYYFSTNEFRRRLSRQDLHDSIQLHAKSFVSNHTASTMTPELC
Assay [4] concerns CHRM1. The assay can be described thus: Cellular Redistribution Assay (CRA) against CHRM1. The conditions noted are these: FIG. 5B.
Text: as §1
The inventors also sought to validate that the compounds identified using the CRA are modulatory compounds. To this end, the above-described CRA was used to screen a library for compounds that interact with three control non-orphan receptors, and the results of this screen were compared to the results of screening the same library for compound that were identified using a Fluorometric Imaging Plate Reader (FLIPR) assay, a conventional technique commonly used to identify compounds interacting with non-orphan GPCRs signaling through Ca+. Three non-orphan GPCRs—Muscarinic acetylcholine receptor M1 (CHRM1), Adrenergic receptor alpha 1a (ADRA1a), and Neuropeptide S receptor (NPSR)—were screened against a 10,000-compound GPCR-focused library. Thirty interacting compound “hits” were identified using the CRA, and eighty-one hits were identified using the FLIPR for the CHRM1 receptor; 9 CRA hits and 29 FLIPR hits for the NPS receptor were identified; and 110 CRA hits and 110 FLIPR hits for ADRA1a.
In addition, the CRA can also provide the relative potencies of compounds against the target receptor.

The target of assay [5] is T2, ADBR2. The assay can be described thus: GloSensor assay, ADBR2 control. The protocol: (§5) In order to confirm that GPR174 interacting compound #4 is an antagonist of GPR174-mediated Gs signaling, a GloSensor assay was carried out with increasing concentrations of compound #4 in the presence or absence of a fixed concentration (1 μM) of the GPR174 agonist LysoPS as follows.
(§6) The GloSensor Assay was performed by transiently transfecting the GPR174 construct, pCMV6-XL4-GPR174 or ADBR2, pGlo22 (300 ng) (Promega) with lipofectamine 2000 (60 μg) (Invitrogen, CA) according to the manufacturer's directions. The DNA/lipofectamine 2000 mix (3000 μL) was incubated at room temperature for 30 minutes and then added into a 10 cm culture dish (Corning, NY) containing 70-90% confluent cultured cells, typically HEK293 or CHO cell lines (ATCC, VA), in 15 mL of media. […] The cells were then incubated at room temperature for 2 hours and the cell plates were pre-read with a SpectraMax L (Molecular Devices, CA). After the pre-read, increasing concentrations of each compound in DMSO (1.0 μl) was added to the cells. The cell plates containing the compound were read immediately after the compound was added and at various times up to 30 minutes after the addition of the compound with a SpectraMax L (Molecular Devices, CA). Data were analyzed with either Excel (Microsoft, WA) or Prism 4.03 (GraphPad, CA).

For assay [6], the target named is T1, GPR174. The assay can be described thus: GloSensor assay, GPR174, with or without LysoPS. The arrangement: host or cells: HEK293 or CHO cell lines (ATCC). The protocol: as §5, §6
Target sequence in this assay (Q9BXC1 whole entry, species assumed, the tested form may be a part): as the sequence (Q9BXC1 whole entry, the tested form may be a part) above

Turning to `CCOC(=O)N1CCN(c2cc(N3CCC(C)CC3)c(F)cc2[N+](=O)[O-])CC1` [Compound 1], the “dose-response in CRA against GPR174” value in assay [1] is “show a dose-response curve against GPR174”. The “effect on Gs pathway in the presence of ADBR2” value (from here on “effect on Gs pathway … of ADBR2”) in assay [2] is listed as “did not inhibit the Gs pathway”. Moreover, the “effect on Gs pathway in the presence of GPR174” value (“effect on Gs pathway … of GPR174” below) in assay [3] is on record as “inhibited the Gs pathway”. Besides, the “activity in CRA against CHRM1” value in assay [4] is on record as “do not show any activity against CHRM1”.

Take `CC(=O)N1CCN(c2cc(N3CCCCC3)c(F)cc2[N+](=O)[O-])CC1` [Compound 2]: the “dose-response in CRA against GPR174” value in assay [1] was “show a dose-response curve against GPR174”. Besides, in assay [2], the “effect on Gs pathway … of ADBR2” value was “did not inhibit the Gs pathway”. Besides, the “effect on Gs pathway … of GPR174” value in assay [3] is listed as “inhibited the Gs pathway”. Further, the “activity in CRA against CHRM1” value in assay [4] is recorded as “do not show any activity against CHRM1”.

On to `CCCC(=O)c1ccc(N2CCN(S(=O)(=O)c3ccc(C)cc3)CC2)c(F)c1` [Compound 4], for which, in assay [1], the “dose-response in CRA against GPR174” value is listed as “show a dose-response curve against GPR174”. The “effect on Gs pathway … of ADBR2” value in assay [2] is given as “did not modulate the Gs pathway”. Further, the “modulation of Gs signaling in the presence of ADBR (GloSensor)” value in assay [5] was “neither compound #4 nor LysoPS modulate Gs signaling”. The “modulation of Gs pathway in the presence of GPR174 (GloSensor)” value in assay [6] (compound alone) is “does not modulate the Gs pathway”. The “competition with GPR174 agonist LysoPS (GloSensor)” value in assay [6] (fixed 1 μM LysoPS) was “does compete with the GPR174 agonist LysoPS”. Also, in assay [3], the “Human GPR174 CRE Activity: nature of compound” value is recorded as “Antagonist” and the “effect on Gs pathway … of GPR174” value is “did not modulate the Gs pathway”. Moreover, the “nature of compound in GPR174 signaling assay” value in assay [3] (human GPR174 with pCRE-Luc) is reported as “GPR174 antagonist”. The “activity in CRA against CHRM1” value in assay [4] is given as “do not show any activity against CHRM1”.

For the molecule “lysophosphatidylserine [LysoPS, reference compound]”, in assay [5], the “modulation of Gs signaling in the presence of ADBR (GloSensor)” value was “neither compound #4 nor LysoPS modulate Gs signaling”.
